# Assay results published in ChEMBL document CHEMBL4425154, “New P2X3 receptor antagonists. Part 2: Identification and SAR of quinazolinones” (Bioorg Med Chem Lett, 2016).
# Details: human, microsomes, 2.5 µM
row,Compound,CLH [mL/h/kg]
1,NS(=O)(=O)c1ccccc1-c1ccc2ncnc(NCc3ccc(Cl)nc3)c2c1,0.024
2,COc1ccc(OC)c(CCN2CCc3ccc(-c4ccccc4S(N)(=O)=O)cc3C2)c1,1.38
3,COc1ccc(OC)c(C(C)n2cnc3ccc(-c4ccccc4S(N)(=O)=O)cc3c2=O)c1 (stereo unspecified),2.88
4,COc1cc(CCn2cnc3ccc(-c4noc(C)n4)cc3c2=O)cc(OC)c1,1.32
5,CNc1ccc(-c2ccccc2S(N)(=O)=O)cc1C(=O)NCCc1cc(OC)ccc1OC,11.5
6,COc1cc(CCn2cnc3ccc(-c4ccccc4S(=O)(=O)N(C)C)cc3c2=O)cc(OC)c1,17.6
